The values below come from patent US8729226B2, “Cancer therapy method” (Centro de Ingenieria Genetica y Biotecnologia, priority 2010, dated 2014).

One series relates to H-125 tumor cells. Description: combination L552 peptide and cytostatic, MTT, CalcuSyn, H-125. It is filed as cell-based, human. The method, then:
(§1) For this assay, HT-29 and H-125 tumor cells were seeded in 96-well plates (Costar) at a density of 1×10^4 cells mL in RPMI 1640 (Gibco) supplemented with fetal calf serum (Gibco). After 24 hours, the peptide was added to the culture medium in a dose range between 9 μM and 300 μM and the cytostatic drug was added in a range dose of 1:10 serial dilution over and below the reported IC50 for each cell line. […] The effect of concomitant treatment cytostatic-peptide was analyzed by the CalcuSyn computer software to study drug combinations (Ting-Chao Chou, 2006, Pharmacological Reviews, 58: 621-681). […] The combination 5-FU+L552 peptide allows a 20 times reduction (RI) of cytostatic in the HT-29 cell line. For the combination cisplatin+L552 peptide, the cytostatic reduction is 5 times in the H-125 cell line. […] This can reduce the adverse effects associated with chemotherapy.

The subject of series [1] is COMMD1 nuclear localization in SW948 cells. The series can be described thus: COMMD1 sub-cellular (nuclear) localization in SW948 cells, Western blot. It is filed as cell-based, human. The note with it: peptide 50 μM, 5 hours. The procedure:
(B) SW948 cells (3×10^6 cells) were incubated for 5 hours at 37° C. and 5% CO2 with the L2 peptide (50 μM). Subsequently, cytosolic and nuclear proteins were obtained as reported (Vancurova et al., 2001, Journal of Biological Chemistry, 276: 19746-19752). The COMMD1 detection was performed by Western blot using an anti-COMMD1 antibody. […] Beta Actin was used as a control for the cytoplasmic fraction and the human ribonucleoprotein (hnRNP) as a control of the nuclear fraction.
In this experiment the objective was to identify a peptide with a higher capacity to accumulate COMMD1 in the nucleus of the cells. SW948 cells (3×10^6 cells) were incubated for 5 hours at 37° C. and 5% CO2 with L2, L551, L552, L553 and L554 peptides (50 μM). Subsequently, isolation of cytosolic and nuclear proteins was performed as described in Example 2. COMMD1 detection was performed by Western blot using an anti-COMMD1 antibody. […] Also, the interaction is related to the facilitation of nuclear accumulation of COMMD1.
In general terms: In western blotting, separated proteins are transferred to a membrane and probed.

Series [2] concerns the target T1, COMMD1 protein (Homo sapiens, UniProt Q8N668). Description: two-hybrid yeast system, L2 peptide-protein interaction. Format: binding. Details: expressed in transfected cells; host or cells: Saccharomyces cerevisiae Y187 (mated with AH109 carrying pGBKL2-1). The note with it: COMMD1 deletion clones. The method, then: To identify anti-tumor L2 peptide-protein interactions the two-hybrid yeast system was used. For cloning the sequences corresponding to the peptide the oligonucleotides were designed as follows:
corresponding to the L2 peptide sequence: […] For cloning these sequences in the pGBKT7 NcoI-BamHI vector, sequences complementary to these sites were added at the ends of the oligonucleotides. The pGBKL2-1 recombinant plasmid, which carries the L2 peptide sequence was verified by restriction analysis and sequencing. The plasmid was transformed into the AH109 yeast strain by the lithium acetate method and grown in SD-Trp medium. It was verified that it could not be self-activated when grown on SD-Trp-His plates. For the screening of the interactions, a human liver cDNA library transformed into the Y187 strain was used. For the diploid formation and the selection of interactions, 5×10^8 AH109 cells containing the pGBKL2-1 plasmid were grown with 5×10^8 Y187 cells containing the human liver DNA library, for 4 hours, on solid medium YPDA at 30° C. Ten ml of sterile water were added on the surface of the YPDA plates, and the cells were suspended carefully with spatula and transferred to 15 plates of SD-Trp-Leu-His-Ade minimal media and grown at 30° C. for 7 days. The 74 resulting colonies were transferred to liquid SD-Trp-Leu in 96 deep well plates. […]
Target sequence in this assay (Q8N668 6-190): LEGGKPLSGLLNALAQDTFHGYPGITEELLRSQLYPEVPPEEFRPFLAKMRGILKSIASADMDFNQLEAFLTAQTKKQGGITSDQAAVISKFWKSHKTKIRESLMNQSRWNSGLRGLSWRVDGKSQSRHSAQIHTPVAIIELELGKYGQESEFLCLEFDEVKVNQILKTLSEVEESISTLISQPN

The target of series [3] is T1, COMMD1 protein. The series can be described thus: pulldown with biotinylated L2 peptide, SW948 total protein extract, Western blot. As to conditions: compared to total protein extract. It is filed as binding. Details: Total extract protein from SW948 (cell line from human colon carcinoma); endogenous in cells; host or cells: SW948. The procedure: (A) The synthetic L2 peptide (SEQ ID No. 1), synthesized using a solid phase procedure was biotinylated and used as “bait” attached to a streptavidin sepharose resin. Total extract protein from SW948 (cell line from human colon carcinoma) was used as a “prey”. These experiments are known as “pulldown”. The total extract protein was obtained from […] cells using extraction buffer (Triton X-100 0.5% 25 mM HEPES, pH 7.5, 100 mM NaCl, 1 mM EDTA, 10% glycerol, 1 mM dithiothreitol (DTT), and a protease inhibitor). The biotinylated peptide (300 μg) was incubated with 50 μL of streptavidin sepharose resin (GE Healthcare), for 1 hour, and washed with phosphate buffered saline (PBS 1×) plus 1 mM DTT were done. Then, 500 μL of total proteins were incubated with 50 μL resin containing the biotinylated peptide, at room temperature for 5 hours. Subsequently, the resin is washed extensively with PBS 1× and 1 mM DTT. Proteins remaining attached to the resin are those that interact with the peptide, and are suspended in 25 μL of electrophoresis buffer (62.5 mM Tris HCl, pH 6.9, 0.1 M DTT, 20% sodium dodecyl-sulphate (SDS), 10% glycerol and 0.01% bromophenol blue). To detect the protein of interest a polyacrylamide gel electrophoresis (7.5%) was performed, followed by immunodetection by Western blot. To detect the COMMD1 protein, a monoclonal antibody against COMMD1 protein (Sigma, clone 2A12) was used. […]
Target sequence in this assay (Q8N668 whole entry): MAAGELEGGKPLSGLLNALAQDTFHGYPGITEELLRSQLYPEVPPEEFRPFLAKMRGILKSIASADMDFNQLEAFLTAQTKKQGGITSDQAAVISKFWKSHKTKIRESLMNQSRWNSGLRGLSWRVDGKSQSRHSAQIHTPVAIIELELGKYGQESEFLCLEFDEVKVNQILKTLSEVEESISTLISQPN

In series [4] the test system is HT-29 cell line transiently transfected with GFP-N-COMMD1. Description: chemosensitivity to 5-FU of transfected HT-29 cells, MTT. The note with it: cells expressing GFP-NCOMMD1 compared to GFP or GFP-COMMD1, 48 hours. Format: cell-based, human. The method, then: (A) The HT-29 cell line transiently transfected with constructs described above were seeded in 96-well plates (Costar) at density of 1×10^4 cells/mL in RPMI 1640 (Gibco) supplemented with fetal calf serum (Gibco) After 24 hours, the cytostatic 5-FU was added to the culture medium in a dose range between 0.025 μM and 2500 μM, in 1:10 serial dilutions. […] Finally, the plate reading at an absorbance of 492 nm was carried out. Each point was performed in duplicate, and experiments were carried out at least twice independently. The IC50 values were obtained from the respective curves of cell proliferation.

A further series has as its system HT-29 tumor cells. The series can be described thus: combination L552 peptide and cytostatic, MTT, CalcuSyn, HT-29. It is filed as cell-based, human. The method, then: as §1

Consider `N.N.[Cl][Pt][Cl]` [cisplatin], for which the “Drug cisplatin” value in the series on H-125 tumor cells (H-125, at Af 94%) was 273 µM. In the series with H-125 tumor cells (H-125, reduction index of the drug in combination with L552), the “RI (cisplatin)” value was 5.

As for “HARIKPTFRRLKWKYKGKFW [Peptide L2, Peptide previously described in application WO 07/095 867]”, the “COMMD1 nuclear localization / accumulation” value in series [1] is “COMMD1 nuclear localization”. Besides, the “interaction with COMMD1 (region responsible)” value with COMMD1 protein [2] is recorded as “specifically binds the region between amino acids 110-190”. The “COMMD1 pulled down by the peptide” value in the series with COMMD1 protein [3] is reported as “concentrates the COMMD1 protein”.

With `O=c1[nH]cc(F)c(=O)[nH]1` [Peptide 5-FU, 5-fluorouracil], the “IC50 of 5-FU” value in series [4] was “reduction of the IC50”. The “Drug 5-FU” value in the series with HT-29 tumor cells (HT-29, at Af 89%) was 5000 µM. Moreover, in the series on HT-29 tumor cells (HT-29, reduction index of the drug in combination with L552), the “RI (5-FU)” value is 20.
